According to the NIST ThermoML archive (doi:10.1021/acs.jced.9b00308):
Numbers after ± are expanded uncertainties.

Tests used:
[1] = Crystal 1; DSC
[2] = Molar enthalpy of transition or fusion; settings: Crystal 1; DSC

Q: For O=C1Cc2ccccc2N1 [indolin-2-one], which Triple point temperature [1] is on record?
A: 393.93 ± 4.1 K

Q: And the “Molar enthalpy of transition or fusion” value [2]?
A: 3.94 ± 0.717 kcal/mol
